US7090863B2, “Hypocholesterolemic composition and methods of use” (Inpharma S.A., priority 2001, dated 2006)

Tested on: normocholesterolemic healthy male subjects
Test: Example 1 first phase: plasma lipoprotein variations after 15 days of soy bean proteins, β-sitosterol or their combination
Type: in vivo, human
Conditions: in rapport to post-seven days of stabilisation diet values
From the text: For the first phase, 18 normocholesterolemic healthy male subjects (mean age: 32.5±8 years) have been enrolled. All subjects followed a stabilisation diet period of seven days during which they received some advises concerning their nourishment (according to the American Heart Association recommends), without any radical modification of their diet customs. A dietician monitored the patient dietary pattern trough the “Seven days questionnaire” for all the experimental duration. Patients were imposed to stop any nutritional supplementation. After this period, all subjects ingested for fifteen days 400 mg β-sitosterol two times/day (6 subjects), 1600 mg soy bean proteins two times/day (6 subjects) or a low dosage product containing soy proteins supplemented in β-sitosterol in a rapport 4:1 (offered and patented by Inpharma SA, Lugano, Switzerland), 2 g two times/day (6 subjects).
The hematochemistry measurements have been carried out on venous blood coming from antecubital harm vein, after 12 fasting hours after the stabilisation diet period and at the end. Blood has been collected into tubes […] heparin or other anticoagulant, plasma was immediately separated by high-speed centrifugation at 3500×g for twenty minutes. TC, HDL-C, TG, Glucose, and Uric acid have been determined with standardised enzymatic […] methods (Gaddi et al., 2001). LDL-C plasma level has been estimated with the Friedewald's formula [LDL-C=TC-(TG/5+HDL-C)], for TG<350 mg/dL.
Data have been sampled in a specific database and analysed with the help of the SPSS 8.0 statistical software. A normality Shapiro-Wilks test has been carried out on all the tested variables, followed by ANOVA and two-tails t-test for paired samples, when possible, and by a post-hoc Tukey's test. Percentages have been compared with the Fisher's exact test. Correlation degree between baseline plasma lipid levels and reduction obtained with the treatment were estimated with a Pearson's bivariate correlation test followed by linear regression. For all tests a “p” level less than 0.05 has been considered as significant.

## CC[C@H](CC[C@@H](C)[C@H]1CC[C@H]2[C@@H]3CC=C4C[C@@H](O)CC[C@]4(C)[C@H]3CC[C@]12C)C(C)C [β-sitosterol]
  Apolipoprotein Al variation: −0.1%
  Apolipoprotein B variation: −0.3%
  High Density Lipoproteins variation: +0.3%
  Low Density Lipoproteins variation: −4.9%
  Total Cholesterol variation: −3.2%
  Tryglycerides variation: −0.1%
  Very Low Density Lipoproteins variation: −0.2%
